Tested on: 889142-216-R-J1-PDC complex spheroid viability
Assay: Anticancer human tumor 889142-216-R-J1-PDC patient-derived bladder carcinoma cell line growth inhibition [POLQ]
Settings: for IC50: curve of first compound; for viability, T/C: stronger effect = lower value
In short: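 PDC + HUVEC + MSC complex spheroids; POLQ inhibitors ± partner drugs; top conc. at/near clinical Cmax, else 10 microM (SN-38 1 microM), half-log dilutions; 37 degrees C, 5% CO2.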

[1] = second compound 0.0316 µM, first compound 0.0316 µM
[2] = second compound 0.0316 µM, first compound 0.1 µM
[3] = second compound 0.0316 µM, first compound 0.316 µM
[4] = second compound 0.0316 µM, first compound 1 µM
[5] = second compound 0.0316 µM, first compound 3.16 µM
[6] = second compound 0.0316 µM, first compound 10 µM
[7] = second compound 0.1 µM, first compound 0.0316 µM
[8] = second compound 0.1 µM, first compound 0.1 µM
[9] = second compound 0.1 µM, first compound 0.316 µM
[10] = second compound 0.1 µM, first compound 1 µM
[11] = second compound 0.1 µM, first compound 3.16 µM
[12] = second compound 0.1 µM, first compound 10 µM
[13] = second compound 0.316 µM, first compound 0.0316 µM
[14] = second compound 0.316 µM, first compound 0.1 µM
[15] = second compound 0.316 µM, first compound 0.316 µM
[16] = second compound 0.316 µM, first compound 1 µM
[17] = second compound 0.316 µM, first compound 3.16 µM
[18] = second compound 0.316 µM, first compound 10 µM
[19] = second compound 1 µM, first compound 0.0316 µM
[20] = second compound 1 µM, first compound 0.1 µM
[21] = second compound 1 µM, first compound 0.316 µM
[22] = second compound 1 µM, first compound 1 µM
[23] = second compound 1 µM, first compound 3.16 µM
[24] = second compound 1 µM, first compound 10 µM
[25] = second compound 3.16 µM, first compound 0.0316 µM
[26] = second compound 3.16 µM, first compound 0.1 µM
[27] = second compound 3.16 µM, first compound 0.316 µM
[28] = second compound 3.16 µM, first compound 1 µM
[29] = second compound 3.16 µM, first compound 3.16 µM
[30] = second compound 3.16 µM, first compound 10 µM
[31] = second compound 10 µM, first compound 0.0316 µM
[32] = second compound 10 µM, first compound 0.1 µM
[33] = second compound 10 µM, first compound 0.316 µM
[34] = second compound 10 µM, first compound 1 µM
[35] = second compound 10 µM, first compound 3.16 µM
[36] = second compound 10 µM, first compound 10 µM
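Further: spheroids exposed to compounds for seven days.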
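Wherever viability, T/C is given: 100% = DMSO vehicle control viability.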

Question: What does the source list for C#Cc1c(F)ccc2cc(O)cc(-c3ncc4c(N5CC6CCC(C5)N6)nc(OCC56CCCN5CC(F)C6)nc4c3F)c12 (centres undefined) + Cc1cccc(N(C)C(=O)C2C(O)CCN2c2nc(C)cc(C(F)(F)F)c2C#N)c1?
Answer: IC50 (second compound 0.0316 µM): 6.08 µM; IC50 (second compound 0.1 µM): 5.01 µM; IC50 (second compound 0.316 µM): 5.26 µM; IC50 (second compound 1 µM): 7.76 µM; IC50 (second compound 3.16 µM): 4.97 µM; IC50 (second compound 10 µM): 5.01 µM; viability, T/C [1]: 106%; viability, T/C [2]: 87.8%; viability, T/C [3]: 82.6%; viability, T/C [4]: 103%; viability, T/C [5]: 74.8%; viability, T/C [6]: 31.1%; viability, T/C [7]: 104%; viability, T/C [8]: 100%; viability, T/C [9]: 78.3%; viability, T/C [10]: 97.8%; viability, T/C [11]: 62%; viability, T/C [12]: 31.9%; viability, T/C [13]: 90.2%; viability, T/C [14]: 81.3%; viability, T/C [15]: 66.4%; viability, T/C [16]: 93.7%; viability, T/C [17]: 60.8%; viability, T/C [18]: 36.3%; viability, T/C [19]: 88.6%; viability, T/C [20]: 69.1%; viability, T/C [21]: 94%; viability, T/C [22]: 71.2%; viability, T/C [23]: 108%; viability, T/C [24]: 39.7%; viability, T/C [25]: 98.2%; viability, T/C [26]: 85.2%; viability, T/C [27]: 64.8%; viability, T/C [28]: 74%; viability, T/C [29]: 72.5%; viability, T/C [30]: 30.5%; viability, T/C [31]: 79.3%; viability, T/C [32]: 71.4%; viability, T/C [33]: 65.8%; viability, T/C [34]: 69.7%; viability, T/C [35]: 73%; viability, T/C [36]: 17.2%

Question: For C=CC(=O)N1CCN(c2nc(=O)n(-c3c(C)ccnc3C(C)C)c3nc(-c4c(O)cccc4F)c(F)cc23)C(C)C1 (centres undefined) + Cc1cccc(N(C)C(=O)C2C(O)CCN2c2nc(C)cc(C(F)(F)F)c2C#N)c1, which IC50 (second compound 0.0316 µM) is on record?
Answer: The IC50 was > 10 µM.

Question: And the IC50 (second compound 0.1 µM)?
Answer: Its IC50 is > 10 µM.

Question: And the IC50 (second compound 0.316 µM)?
Answer: Its IC50 is > 10 µM.

Question: And the IC50 (second compound 1 µM)?
Answer: Its IC50 is > 10 µM.

Question: What about the IC50 (second compound 3.16 µM) of the same molecule?
Answer: The IC50 was > 10 µM.

Question: And the IC50 (second compound 10 µM)?
Answer: Its IC50 is > 10 µM.

Question: What about the viability, T/C [1] of the same molecule?
Answer: Its viability, T/C is 108%.

Question: What about the viability, T/C [2] of the same molecule?
Answer: Its viability, T/C is 93.5%.

Question: And the viability, T/C [3]?
Answer: The viability, T/C was 102%.

Question: And the viability, T/C [4]?
Answer: The viability, T/C was 115%.

Question: And the viability, T/C [5]?
Answer: Its viability, T/C is 122%.

Question: And the viability, T/C [6]?
Answer: The viability, T/C was 81.4%.

Question: What about the viability, T/C [7] of the same molecule?
Answer: The viability, T/C was 110%.

Question: What about the viability, T/C [8] of the same molecule?
Answer: Its viability, T/C is 112%.

Question: And the viability, T/C [9]?
Answer: The viability, T/C was 100%.

Question: And the viability, T/C [10]?
Answer: The viability, T/C was 101%.

Question: And the viability, T/C [11]?
Answer: Its viability, T/C is 132%.

Question: And the viability, T/C [12]?
Answer: Its viability, T/C is 96.2%.

Question: What about the viability, T/C [13] of the same molecule?
Answer: Its viability, T/C is 97.4%.

Question: What about the viability, T/C [14] of the same molecule?
Answer: Its viability, T/C is 119%.

Question: And the viability, T/C [15]?
Answer: The viability, T/C was 123%.

Question: And the viability, T/C [16]?
Answer: The viability, T/C was 116%.

Question: What about the viability, T/C [17] of the same molecule?
Answer: The viability, T/C was 129%.

Question: What about the viability, T/C [18] of the same molecule?
Answer: The viability, T/C was 106%.

Question: What about the viability, T/C [19] of the same molecule?
Answer: Its viability, T/C is 104%.

Question: And the viability, T/C [20]?
Answer: The viability, T/C was 107%.

Question: And the viability, T/C [21]?
Answer: The viability, T/C was 107%.

Question: What about the viability, T/C [22] of the same molecule?
Answer: Its viability, T/C is 111%.

Question: What about the viability, T/C [23] of the same molecule?
Answer: The viability, T/C was 124%.

Question: What about the viability, T/C [24] of the same molecule?
Answer: The viability, T/C was 89.3%.

Question: What about the viability, T/C [25] of the same molecule?
Answer: The viability, T/C was 98.5%.

Question: What about the viability, T/C [26] of the same molecule?
Answer: The viability, T/C was 89.3%.

Question: And the viability, T/C [27]?
Answer: Its viability, T/C is 93.8%.

Question: And the viability, T/C [28]?
Answer: Its viability, T/C is 97.2%.

Question: And the viability, T/C [29]?
Answer: The viability, T/C was 138%.

Question: And the viability, T/C [30]?
Answer: Its viability, T/C is 87.9%.

Question: What about the viability, T/C [31] of the same molecule?
Answer: The viability, T/C was 91.1%.

Question: What about the viability, T/C [32] of the same molecule?
Answer: The viability, T/C was 74.8%.

Question: What about the viability, T/C [33] of the same molecule?
Answer: The viability, T/C was 82.5%.

Question: What about the viability, T/C [34] of the same molecule?
Answer: Its viability, T/C is 100%.

Question: And the viability, T/C [35]?
Answer: Its viability, T/C is 106%.

Question: And the viability, T/C [36]?
Answer: The viability, T/C was 76.7%.

Source: PubChem BioAssay AID1963831 (Molecular Pharmacology Branch, DTP, NCI, 2024)
